These results are taken from PMC10880924, “Small molecule WDR5 inhibitors down-regulate lncRNA expression” (RSC Medicinal Chemistry, 2024).

Where two headings read alike, the source gives them in different places. Bridge positions count the residues as written; N and C are the ends. Square brackets hold non-standard residues; d marks the D form. Peptide text beside a SMILES is read from it. Dab = NCC[C@H](N)C(=O)O Some results are limits rather than exact numbers.

The target in one test is WDR5^WT (WBM site) (Homo sapiens, UniProt P61964).
In a further test the target is WDR5^WT (WIN site) (Homo sapiens, UniProt P61964). Particulars: for inhibition at the WIN site: competitive FP, tracer 1F.
Test [1] deals with HOTTIP expression in MDA-MB-231 cells. Particulars: for HOTTIP fold change: mean ± SD.
Test [2] concerns TGF-β1 expression in MDA-MB-231 cells. The following applies: 3 d, vs blank = 1.000, mean ± SD.
In test [3] the test system is FOXD3-AS1 expression in MDA-MB-231 cells. The following applies: for FOXD3-AS1 fold change: mean ± SD.
[4] abbreviates: 1 µM, 3 d, exp 8 (individual bioreplicate), vs blank = 1.000.
[5] abbreviates: 1 µM, 3 d, exp 9 (individual bioreplicate), vs blank = 1.000.
The mark [6] stands for this setting: 5 µM, 3 d, exp 7 (individual bioreplicate), vs blank = 1.000.
The mark [7] stands for this setting: 5 µM, 3 d, exp 8 (individual bioreplicate), vs blank = 1.000.
The mark [8] stands for this setting: 5 µM, 3 d, exp 9 (individual bioreplicate), vs blank = 1.000.
[9] abbreviates: 10 µM, 1 d, Exp. 1 (individual bioreplicate), vs blank 0.1% DMSO = 1.000.
Where [10] appears, read: 10 µM, 1 d, Exp. 2 (individual bioreplicate), vs blank 0.1% DMSO = 1.000.
Where [11] appears, read: 10 µM, 1 d, Exp. 3 (individual bioreplicate), vs blank 0.1% DMSO = 1.000.
[12] abbreviates: 10 µM, 1 d, Exp. 4 (individual bioreplicate), vs blank 0.1% DMSO = 1.000.
[13] abbreviates: 10 µM, 1 d, Exp. 5 (individual bioreplicate), vs blank 0.1% DMSO = 1.000.
The mark [14] stands for this setting: 10 µM, 1 d, Exp. 6 (individual bioreplicate), vs blank 0.1% DMSO = 1.000.
The mark [15] stands for this setting: 10 µM, 3 d, Exp. 7 (individual bioreplicate), vs blank 0.1% DMSO = 1.000.
Where [16] appears, read: 10 µM, 3 d, Exp. 8 (individual bioreplicate), vs blank 0.1% DMSO = 1.000.
The mark [17] stands for this setting: 10 µM, 3 d, Exp. 9 (individual bioreplicate), vs blank 0.1% DMSO = 1.000.
Setting [18] is: 10 µM, 3 d, Exp. 10 (individual bioreplicate), vs blank 0.1% DMSO = 1.000.
Setting [19] is: 10 µM, 3 d, Exp. 11 (individual bioreplicate), vs blank 0.1% DMSO = 1.000.
The mark [20] stands for this setting: 10 µM, 3 d, Exp. 12 (individual bioreplicate), vs blank 0.1% DMSO = 1.000.
The mark [21] stands for this setting: MDA-MB-231, three days, 1/5/10 μM tested.

For `CC(=O)N[C@@H](C)C(=O)N[C@@H](CCCNC(=N)N)C(=O)N[C@H](C(=O)N[C@@H](CCC(=O)O)C(=O)N[C@H](C(=O)N[C@@H](Cc1c[nH]cn1)C(=O)N[C@@H](CC(C)C)C(=O)N[C@@H](CCCNC(=N)N)C(=O)N[C@@H](CCCCN)C(=O)N[C@@H](CO)C(N)=O)C(C)C)[C@@H](C)O` [1NH2], the “inhibition at the WBM site” value at WDR5^WT (WBM site) (competitive FP, tracer 2F) was “does not inhibit the WBM-site”.

For `CC[C@H](C)[C@H](NC(=O)[C@H](CCC(=O)O)NC(=O)[C@H](CCC(=O)O)NC(=O)[C@H](CCC(=O)O)NC(=O)[C@H](CC(=O)O)NC(C)=O)C(=O)N[C@H]1CC(=O)NCC[C@@H](C(=O)N[C@H](C(=O)N[C@@H](CCC(=O)O)C(N)=O)C(C)C)NC(=O)[C@H](C(C)C)NC(=O)[C@H](C(C)C)NC1=O` [2Ac] (Ac-DEEEIDVV[Dab]VE-NH2; lactam 6-9), the “inhibition at the WIN site” value at WDR5^WT (WIN site) is “vice versa”.

`CNC(=O)c1cc(C2(C#N)CCC2)cc(NS(=O)(=O)c2cc(Br)cc(Cl)c2O)c1O` [7k, 3-((5-Bromo-3-chloro-2-hydroxyphenyl)sulfonamido)-5-(1cyanocyclobutyl)-2-hydroxy-N-methylbenzamide]: the HOTTIP fold change is 0.923 ± 0.164 in test [1] (1 µM, 3 d, exp 7 (individual bioreplicate), vs blank = 1.000); 0.821 ± 0.069 in test [1] (setting [4]); 1.189 ± 0.152 in test [1] (setting [5]); 0.643 ± 0.184 in test [1] (setting [6]); 0.877 ± 0.062 in test [1] (setting [7]); 0.915 ± 0.153 in test [1] (setting [8]). Also, the HOTTIP fold change in test [1] (setting [9]) was 0.963 ± 0.284; in test [1] (setting [10]), 1.521 ± 0.182; in test [1] (setting [11]), 1.129 ± 0.176; in test [1] (setting [12]), 0.970 ± 0.197; in test [1] (setting [13]), 0.988 ± 0.141; in test [1] (setting [14]), 0.618 ± 0.071. Also, the HOTTIP fold change in test [1] (setting [15]) came out at 0.464 ± 0.082; in test [1] (setting [16]), 0.570 ± 0.035; in test [1] (setting [17]), 0.733 ± 0.095; in test [1] (setting [18]), 0.646 ± 0.116; in test [1] (setting [19]), 1.031 ± 0.214; in test [1] (setting [20]), 0.548 ± 0.132. Also, the “concentration required for significant changes of HOTTIP expression” value in test [1] (setting [21]) was determined as 10 µM. Further, the TGF-β1 fold change in test [2] (1 µM, exp 7 (individual bioreplicate)) is given as 0.972 ± 0.048; in test [2] (1 µM, exp 8 (individual bioreplicate)), 1.020 ± 0.062; in test [2] (1 µM, exp 9 (individual bioreplicate)), 1.060 ± 0.127; in test [2] (5 µM, exp 7 (individual bioreplicate)), 0.916 ± 0.056; in test [2] (5 µM, exp 8 (individual bioreplicate)) it was 1.009 ± 0.079; in test [2] (5 µM, exp 9 (individual bioreplicate)) it was 1.003 ± 0.120. In addition, the TGF-β1 fold change stood at 0.972 ± 0.055 in test [2] (10 µM, exp 7 (individual bioreplicate)); 0.987 ± 0.059 in test [2] (10 µM, exp 8 (individual bioreplicate)); 0.942 ± 0.101 in test [2] (10 µM, exp 9 (individual bioreplicate)). Besides, the FOXD3-AS1 fold change in test [3] (setting [4]) came to 0.984 ± 0.128; in test [3] (setting [5]), 0.971 ± 0.104; in test [3] (setting [6]), 0.753 ± 0.078; in test [3] (setting [7]) it was 1.178 ± 0.131; in test [3] (setting [8]), 1.020 ± 0.085; in test [3] (setting [9]), 0.913 ± 0.098. Further, the FOXD3-AS1 fold change in test [3] (setting [10]) is 1.000 ± 0.050; in test [3] (setting [11]), 0.842 ± 0.122; in test [3] (setting [12]), 0.826 ± 0.055; in test [3] (setting [13]) it was 1.053 ± 0.047; in test [3] (setting [14]) it was 0.901 ± 0.056; in test [3] (setting [15]), 0.756 ± 0.076. The FOXD3-AS1 fold change is reported as 1.075 ± 0.124 in test [3] (setting [16]); 0.847 ± 0.077 in test [3] (setting [17]); 0.798 ± 0.040 in test [3] (setting [18]); 0.944 ± 0.033 in test [3] (setting [19]); 0.650 ± 0.065 in test [3] (setting [20]). On WDR5^WT (WIN site), the “inhibition at the WIN site” value is “did not observe any crossover inhibition”. Further, the Ki is more than 40000 nM on WDR5^WT (WIN site) (read-out: Ki (tracer 1F), WIN site, WDR5^WT 2 nM, 1F 0.6 nM, HEPES pH 7.0, 0.01% Triton-X, 1% DMSO, mean ± SD of four replicates (two biological x two technical), converted from IC50) and 107 ± 20 nM at WDR5^WT (WBM site) (read-out: Ki (tracer 2F), WBM site, WDR5^WT 500 nM, 2F 5.0 nM, HEPES pH 7.0, 0.01% Triton-X, 1% DMSO, mean ± SD of four replicates (two biological x two technical), converted from IC50).

With `CN1CCN(c2ccc(-c3cccc(CN4CCOCC4)c3)cc2NC(=O)c2c[nH]c(=O)cc2C(F)(F)F)CC1` [OICR-9429], the “concentration of maximum effect on HOTTIP expression” value in test [1] (setting [21]) came to 5 µM. Further, the “concentration of maximum effect on FOXD3-AS1 expression” value in test [3] (setting [21]) was determined as 5 µM.
